Measured values: ChEMBL document CHEMBL1152855, “Regioselective synthesis of dispiro[1H-indene-2,3'-pyrrolidine-2',3''-[3H]indole]-1,2''(1''H)-diones of potential anti-tumor properties” (2009)

What was measured:
HOP-62 = assay: Growth inhibition of human HOP62 cells at 10 uM after 48 hrs by sulforhodamine B assay; type: functional; conditions: HOP-62, 48 h, values are per cent of control
NCI-H226 = assay: Growth inhibition of human NCI-H226 cells at 10 uM after 48 hrs by sulforhodamine B assay; type: functional; conditions: NCI-H226, 48 h, values are per cent of control
NCI-H460 = assay: Growth inhibition of human NCI-H460 cells at 10 uM after 48 hrs by sulforhodamine B assay; type: functional; conditions: NCI-H460, 48 h, values are per cent of control
NCI-H522 = assay: Growth inhibition of human NCI-H522 cells at 10 uM after 48 hrs by sulforhodamine B assay; type: functional; conditions: NCI-H522, 48 h, values are per cent of control
HCT-116 = assay: Growth inhibition of human HCT116 cells at 10 uM after 48 hrs by sulforhodamine B assay; type: functional; conditions: HCT-116, 48 h, values are per cent of control
HCT-15 = assay: Growth inhibition of human HCT15 cells at 10 uM after 48 hrs by sulforhodamine B assay; type: functional; conditions: HCT-15, 48 h, values are per cent of control
KM12 = assay: Growth inhibition of human KM12 cells at 10 uM after 48 hrs by sulforhodamine B assay; type: functional; conditions: KM12, 48 h, values are per cent of control
SW-620 = assay: Growth inhibition of human SW620 cells at 10 uM after 48 hrs by sulforhodamine B assay; type: functional; conditions: SW-620, 48 h, values are per cent of control
BT-549 = assay: Growth inhibition of human BT549 cells at 10 uM after 48 hrs by sulforhodamine B assay; type: functional; conditions: BT-549, 48 h, values are per cent of control
MCF7 = assay: Growth inhibition of human MCF7 cells at 10 uM after 48 hrs by sulforhodamine B assay; type: functional; conditions: MCF7, 48 h, values are per cent of control
MDA-MB-435 = assay: Growth inhibition of human MDA-MB-435 cells at 10 uM after 48 hrs by sulforhodamine B assay; type: functional; conditions: MDA-MB-435, 48 h, values are per cent of control
T47D = assay: Growth inhibition of human T47D cells at 10 uM after 48 hrs by sulforhodamine B assay; type: functional; conditions: values are per cent of control
OVCAR-3 = assay: Growth inhibition of human OVCAR-3 cells at 10 uM after 48 hrs by sulforhodamine B assay; type: functional; conditions: OVCAR-3, 48 h, values are per cent of control
OVCAR-4 = assay: Growth inhibition of human OVCAR4 cells at 10 uM after 48 hrs by sulforhodamine B assay; type: functional; conditions: OVCAR-4, 48 h, values are per cent of control
OVCAR-5 = assay: Growth inhibition of human OVCAR5 cells at 10 uM after 48 hrs by sulforhodamine B assay; type: functional; conditions: OVCAR-5, 48 h, values are per cent of control
OVCAR-8 = assay: Growth inhibition of human OVCAR8 cells at 10 uM after 48 hrs by sulforhodamine B assay; type: functional; conditions: OVCAR-8, 48 h, read-out: GI
SK-OV-3 = assay: Growth inhibition of human SKOV3 cells at 10 uM after 48 hrs by sulforhodamine B assay; type: functional; conditions: SK-OV-3, 48 h, values are per cent of control
CCRF-CEM = assay: Growth inhibition of human CCRF-CEM cells at 10 uM after 48 hrs by sulforhodamine B assay; type: functional; conditions: values are per cent of control
K562 = assay: Growth inhibition of human K562 cells at 10 uM after 48 hrs by sulforhodamine B assay; type: functional; conditions: K562, 48 h, values are per cent of control
RPMI-8226 = assay: Growth inhibition of human RPMI8226 cells at 10 uM after 48 hrs by sulforhodamine B assay; type: functional; conditions: RPMI-8226, 48 h, read-out: GI
SR = assay: Growth inhibition of human SR cells at 10 uM after 48 hrs by sulforhodamine B assay; type: functional; conditions: values are per cent of control
786-0 = assay: Growth inhibition of human 786-0 cells at 10 uM after 48 hrs by sulforhodamine B assay; type: functional; conditions: 786-0, 48 h, values are per cent of control
ACHN = assay: Growth inhibition of human ACHN cells at 10 uM after 48 hrs by sulforhodamine B assay; type: functional; conditions: values are per cent of control
CAKI-1 = assay: Growth inhibition of human Caki1 cells at 10 uM after 48 hrs by sulforhodamine B assay; type: functional; conditions: CAKI-1, 48 h, values are per cent of control
Rattus norvegicus [1] = assay: Antiinflammatory activity against carrageenan-induced paw edema in Wister albino rat assessed as inhibition of edema at 50 mg/kg, ip administered 1 hr prior to carrageenan challenge measured after 4 hrs relative to control; type: functional; conditions: route intraperitoneal
UO-31 = assay: Growth inhibition of human UO31 cells at 10 uM after 48 hrs by sulforhodamine B assay; type: functional; conditions: UO-31, 48 h, values are per cent of control
M14 = assay: Growth inhibition of human M14 cells at 10 uM after 48 hrs by sulforhodamine B assay; type: functional; conditions: M14, 48 h, values are per cent of control
Malme-3M = assay: Growth inhibition of human MALME-3M cells at 10 uM after 48 hrs by sulforhodamine B assay; type: functional; conditions: values are per cent of control
SK-MEL-28 = assay: Growth inhibition of human SK-MEL-28 cells at 10 uM after 48 hrs by sulforhodamine B assay; type: functional; conditions: SK-MEL-28, 48 h, values are per cent of control
UACC-62 = assay: Growth inhibition of human UACC62 cells at 10 uM after 48 hrs by sulforhodamine B assay; type: functional; conditions: UACC-62, 48 h, values are per cent of control
DU-145 = assay: Growth inhibition of human DU145 cells at 10 uM after 48 hrs by sulforhodamine B assay; type: functional; conditions: DU-145, 48 h, values are per cent of control
PC-3 = assay: Growth inhibition of human PC3 cells at 10 uM after 48 hrs by sulforhodamine B assay; type: functional; conditions: PC-3, 48 h, values are per cent of control
SF-268 = assay: Growth inhibition of human SF268 cells at 10 uM after 48 hrs by sulforhodamine B assay; type: functional; conditions: SF-268, 48 h, values are per cent of control
SNB-19 = assay: Growth inhibition of human SNB19 cells at 10 uM after 48 hrs by sulforhodamine B assay; type: functional; conditions: SNB-19, 48 h, values are per cent of control
SNB-75 = assay: Growth inhibition of human SNB75 cells at 10 uM after 48 hrs by sulforhodamine B assay; type: functional; conditions: SNB-75, 48 h, values are per cent of control
U-251 = assay: Growth inhibition of human U251 cells at 10 uM after 48 hrs by sulforhodamine B assay; type: functional; conditions: U-251, 48 h, values are per cent of control
Rattus norvegicus [2] = assay: Antiinflammatory activity against carrageenan-induced paw edema in Wister albino rat assessed as inhibition of edema at 50 mg/kg, ip administered 1 hr prior to carrageenan challenge measured after 3 hrs relative to control; type: functional; conditions: route intraperitoneal
TK-10 = assay: Growth inhibition of human TK10 cells at 10 uM after 48 hrs by sulforhodamine B assay; values are per cent of control; conditions: TK-10, 48 h

SMILES: [3H]N1C(=O)[C@@]2(c3ccccc31)N(C)C[C@@H](c1ccc(Cl)cc1)[C@@]21Cc2ccccc2C1=O
- growth, % of control at 10 µM (HOP-62): 87.5%
- growth, % of control at 10 µM (NCI-H226): 73.7%
- growth, % of control at 10 µM (NCI-H460): 94.7%
- growth, % of control at 10 µM (NCI-H522): 73.9%
- growth, % of control at 10 µM (HCT-116): 54.6%
- growth, % of control at 10 µM (HCT-15): 82.5%
- growth, % of control at 10 µM (KM12): 81.2%
- growth, % of control at 10 µM (SW-620): 76.2%
- growth, % of control at 10 µM (BT-549): 121%
- growth, % of control at 10 µM (MCF7): 109%
- growth, % of control at 10 µM (MDA-MB-435): 95.1%
- growth, % of control at 10 µM (T47D): 81.8%
- growth, % of control at 10 µM (OVCAR-3): 78.6%
- growth, % of control at 10 µM (OVCAR-4): 74.5%
- growth, % of control at 10 µM (OVCAR-5): 93.2%
- inhibition of growth at 10 µM (OVCAR-8): 69.2%
- growth, % of control at 10 µM (SK-OV-3): 91%
- growth, % of control at 10 µM (CCRF-CEM): 74.7%
- growth, % of control at 10 µM (K562): 58.5%
- inhibition of growth at 10 µM (RPMI-8226): 36.6%
- growth, % of control at 10 µM (SR): 167%
- growth, % of control at 10 µM (786-0): 88.9%
- growth, % of control at 10 µM (ACHN): 80.5%
- growth, % of control at 10 µM (CAKI-1): 80%
- inhibition in vivo at 50 mg/kg (Rattus norvegicus [1]): 15.6%
- growth, % of control at 10 µM (UO-31): 62.7%
- growth, % of control at 10 µM (M14): 82.9%
- growth, % of control at 10 µM (Malme-3M): 120%
- growth, % of control at 10 µM (SK-MEL-28): 112%
- growth, % of control at 10 µM (UACC-62): 45.8%
- growth, % of control at 10 µM (DU-145): 103%
- growth, % of control at 10 µM (PC-3): 36.5%
- growth, % of control at 10 µM (SF-268): 90%
- growth, % of control at 10 µM (SNB-19): 89.9%
- growth, % of control at 10 µM (SNB-75): 61.1%
- growth, % of control at 10 µM (U-251): 87.7%
- inhibition in vivo at 50 mg/kg (Rattus norvegicus [2]): 18.9%
- growth, % of control at 10 µM (TK-10): 144%
